Where two headings read alike, the source gives them in different places.
Tests used:
[1] = target: GDP-bound HRAS wild-type protein (Homo sapiens, UniProt P01112); assay: Binding to HRAS by surface plasmon resonance (SPR), Single Cycle Kinetics; conditions: for HRAS/KRAS (ratio of KD value with respect to GDP-bound HRAS wild-type protein to KD value with respect to KRAS): SPR KD ratio HRAS/KRAS, class symbols; for HRAS/KRAS (ratio of KD value for HRAS to KD value for KRAS): SPR, GDP-bound HRAS wild-type protein vs GDP-bound KRAS wild-type protein
Sequence of GDP-bound HRAS wild-type protein (P01112 whole entry): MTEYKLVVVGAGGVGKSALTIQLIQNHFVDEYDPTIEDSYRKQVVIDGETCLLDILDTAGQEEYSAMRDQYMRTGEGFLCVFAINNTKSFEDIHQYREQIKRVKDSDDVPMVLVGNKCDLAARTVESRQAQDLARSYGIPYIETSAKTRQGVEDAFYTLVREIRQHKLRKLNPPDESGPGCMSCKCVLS

[2] = test system: human lung cancer strain NCI-H441;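 also: cell proliferation inhibition after four days measured by CellTiter-Glo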
[3] = target: GDP-bound NRAS wild-type protein (Homo sapiens, UniProt P01111); assay: Binding to NRAS by surface plasmon resonance (SPR), Single Cycle Kinetics; conditions: for NRAS/KRAS (ratio of KD value with respect to GDP-bound NRAS wild-type protein to KD value with respect to KRAS): SPR KD ratio NRAS/KRAS, class symbols; for NRAS/KRAS (ratio of KD value for NRAS to KD value for KRAS): SPR, GDP-bound NRAS wild-type protein vs GDP-bound KRAS wild-type protein
Sequence of GDP-bound NRAS wild-type protein (P01111 whole entry): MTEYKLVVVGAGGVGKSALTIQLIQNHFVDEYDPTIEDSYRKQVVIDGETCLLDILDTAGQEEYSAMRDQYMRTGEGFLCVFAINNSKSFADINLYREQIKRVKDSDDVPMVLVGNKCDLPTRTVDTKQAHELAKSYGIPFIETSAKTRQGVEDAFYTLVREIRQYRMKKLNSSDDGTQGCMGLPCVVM

[4] = target: GDP-bound KRAS wild-type protein (Homo sapiens, UniProt P01116); assay: Binding to KRAS by surface plasmon resonance (SPR), Single Cycle Kinetics; conditions: GDP-bound KRAS wild-type protein, read-out: KRAS KD
Sequence of GDP-bound KRAS wild-type protein (P01116 whole entry): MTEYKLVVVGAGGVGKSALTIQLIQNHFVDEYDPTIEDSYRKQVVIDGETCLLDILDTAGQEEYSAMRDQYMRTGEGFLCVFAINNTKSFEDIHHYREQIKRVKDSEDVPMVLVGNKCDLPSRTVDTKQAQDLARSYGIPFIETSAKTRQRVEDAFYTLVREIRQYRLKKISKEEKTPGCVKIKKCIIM

[5] = SPR Single Cycle Kinetics, 1:1 binding model
[6] = SPR, Single Cycle Kinetics, 1:1 binding model

| Compound | IC50 [2] | Kd [4, 5] | Kd [4, 6] | Kd ([4]; SPR, Single Cycle Kinetics) | HRAS/KRAS (ratio of KD value with respect to GDP-bound HRAS wild-type protein to KD value with respect to KRAS) [1] | NRAS/KRAS (ratio of KD value with respect to GDP-bound NRAS wild-type protein to KD value with respect to KRAS) [3] | HRAS/KRAS (ratio of KD value for HRAS to KD value for KRAS) ([1]; KD ratio class) | NRAS/KRAS (ratio of KD value for NRAS to KD value for KRAS) ([3]; KD ratio class) | HRAS/KRAS (ratio of KD value for HRAS to KD value for KRAS) [1] | NRAS/KRAS (ratio of KD value for NRAS to KD value for KRAS) [3] |
| --- | --- | --- | --- | --- | --- | --- | --- | --- | --- | --- |
| CCO[C@@H]1C[C@H]2C(=O)NC3(CCC3)C(=O)N(C)[C@@H](C3CCCC3)C(=O)N(C)[C@H](C(=O)N(C)C)CC(=O)N(C)[C@@H](CSC)C(=O)N[C@@H]([C@@H](C)CC)C(=O)N(C)CC(=O)N(C)[C@H]3C/C=C\CCN(C3=O)[C@@H](CC3CCC(F)(F)CC3)C(=O)N(C)CC(=O)N[C@@H](CCc3cc(F)c(C(F)(F)F)c(F)c3)C(=O)N2C1 [PP1449, (2S,8S,12R,14S,20S,23S,27R,30S,36S,38Z)-20-cyclopentyl-2-[(4,4-difluorocyclohexyl)methyl]-8-[2-[3,5-difluoro-4-(trifluoromethyl)phenyl]ethyl]-12-ethoxy-N,N,4,19,22,26,32,35-octamethyl-30-[(1 S)-1-methylpropyl]-27-(methylsulfanylmethyl)-3,6,9,15,18,21,25,28,31,34,42-undecaoxo-spiro[1,4,7,10,16,19,22,26,29,32,35-undecazatricyclo[34.5.1.0^10,14]dotetracont-38-ene-17,1′-cyclobutane]-23-carboxamide] | 30.6 nM | – | 0.098 nM | – | – | – | A (a compound having 10 or more and less than 20 is denoted as A) | A (a compound having 10 or more and less than 20 is denoted as A) | – | – |
| CCO[C@@H]1C[C@H]2C(=O)NC3(CCC3)C(=O)N(C)[C@@H](C(CC)CC)C(=O)N(C)[C@H](C(=O)N3CCCC3)CC(=O)N(C)[C@@H](C)C(=O)N[C@@H]([C@@H](C)CC)C(=O)N(C)CC(=O)N(C)[C@H]3C/C=C\CCN(C3=O)[C@@H](CC3CCC(F)(F)CC3)C(=O)N(C)CC(=O)N[C@@H](CCc3cc(F)c(C(F)(F)F)c(F)c3)C(=O)N2C1 [PP1436] | 47.4 nM | – | 0.29 nM | – | – | – | A (a compound having 10 or more and less than 20 is denoted as A) | AA (a compound having 20 or more is denoted as AA) | – | – |
| CCCOC[C@H]1C(=O)N[C@@H]([C@@H](C)CC)C(=O)N(C)CC(=O)N(C)[C@H]2C/C=C\CCN(C2=O)[C@@H](Cc2ccc(C(F)(F)F)cc2)C(=O)N(C)CC(=O)N[C@@H](CCc2cc(F)c(C(F)(F)F)c(F)c2)C(=O)N2C[C@H](OCC)C[C@H]2C(=O)NC2(CC(C)(C)C2)C(=O)N(C)[C@@H](C2CCCC2)C(=O)N(C)[C@H](C(=O)N(C)C)CC(=O)N1C [PP1398, (2S,8S,12R,14S,20S,23S,27S,30S,36S,38Z)-20-cyclopentyl-8-[2-[3,5-difluoro-4-(trifluoromethyl)phenyl]ethyl]-12-ethoxy-N,N,3′,3′,4,19,22,26,32,35-decamethyl-30-[(1S)-1-methylpropyl]-3,6,9,15,18,21,25,28,31,34,42-undecaoxo-27-(propoxymethyl)-2-[[4-(trifluoromethyl)phenyl]methyl]spiro[1,4,7,10,16,19,22,26,29,32,35-undecazatricyclo[34.5.1.0^10,14]dotetracont-38-ene-17,1′-cyclobutane]-23-carboxamide] | 2.3 nM | – | 0.032 nM | – | – | – | A (a compound having 10 or more and less than 20 is denoted as A) | A (a compound having 10 or more and less than 20 is denoted as A) | – | – |
| CCO[C@@H]1C[C@H]2C(=O)NC3(CCC3)C(=O)N(C)[C@@H](C3CCCC3)C(=O)N(C)[C@H](C(=O)N(C)C)CC(=O)N(C)[C@@H](Cc3cccc(C#N)c3)C(=O)N[C@@H]([C@@H](C)CC)C(=O)N(C)CC(=O)N(C)[C@H]3CCCCCN(C3=O)[C@@H](Cc3ccc(C(F)(F)F)cc3)C(=O)N(C)CC(=O)N[C@@H](CCc3cc(F)c(C(F)(F)F)c(F)c3)C(=O)N2C1 [PP1172] | 48.3 nM | – | – | 0.17 nM | – | – | – | – | B (a compound having 3 or more and less than 10 is denoted as B) | B (a compound having 3 or more and less than 10 is denoted as B) |
| CCO[C@@H]1C[C@H]2C(=O)NC3(CCC3)C(=O)N(C)[C@@H](C3CCCC3)C(=O)N(C)[C@H](C(=O)N(C)C)CC(=O)N(C)[C@@H](COC)C(=O)N[C@@H]([C@@H](C)CC)C(=O)N(C)CC(=O)N(C)[C@H]3CCCCCN(C3=O)[C@@H](Cc3ccc(F)cc3)C(=O)N(C)CC(=O)N[C@@H](CCc3cc(F)c(C(F)(F)F)c(F)c3)C(=O)N2C1 [PP1193] | 16.3 nM | – | – | 0.07 nM | – | – | – | – | B (a compound having 3 or more and less than 10 is denoted as B) | B (a compound having 3 or more and less than 10 is denoted as B) |

Second part, led by results:

| IC50 [2] | Kd [4, 5] | Kd [4, 6] | Kd ([4]; SPR, Single Cycle Kinetics) | Compound | HRAS/KRAS (ratio of KD value with respect to GDP-bound HRAS wild-type protein to KD value with respect to KRAS) [1] | NRAS/KRAS (ratio of KD value with respect to GDP-bound NRAS wild-type protein to KD value with respect to KRAS) [3] | HRAS/KRAS (ratio of KD value for HRAS to KD value for KRAS) ([1]; KD ratio class) | NRAS/KRAS (ratio of KD value for NRAS to KD value for KRAS) ([3]; KD ratio class) | HRAS/KRAS (ratio of KD value for HRAS to KD value for KRAS) [1] | NRAS/KRAS (ratio of KD value for NRAS to KD value for KRAS) [3] |
| --- | --- | --- | --- | --- | --- | --- | --- | --- | --- | --- |
| 75.1 nM | 0.74 nM | – | – | CCC[C@H]1C(=O)N[C@@H]([C@@H](C)CC)C(=O)N(C)CC(=O)N(C)[C@H]2C/C=C\CCN(C2=O)[C@@H](Cc2ccc(C)cc2)C(=O)N(C)CC(=O)N[C@@H](CCc2ccc(Cl)c(Cl)c2)C(=O)N2C[C@H](OC(C)C)C[C@H]2C(=O)NC2(CC(C)(C)C2)C(=O)N(C)[C@@H](C(CC)CC)C(=O)N(C)[C@H](C(=O)N(C)C)CC(=O)N1C [PP2537] | A (a compound having 10 or more and less than 20 is denoted as A) | AA (a compound having 20 or more is denoted as AA) | – | – | – | – |
| 5.3 nM | 0.067 nM | – | – | CCOC[C@H]1C(=O)N[C@@H]([C@@H](C)CC)C(=O)N(C)CC(=O)N(C)[C@H]2C/C=C\CCN(C2=O)[C@@H](Cc2ccc(C(F)(F)F)cc2)C(=O)N(C)CC(=O)N[C@@H](CCc2cc(F)c(C(F)(F)F)c(F)c2)C(=O)N2C[C@H](OCC)C[C@H]2C(=O)NC2(CC(C)(C)C2)C(=O)N(C)[C@@H](CC(C)(C)C)C(=O)N(C)[C@H](C(=O)N(C)C)CC(=O)N1C [PP2732] | A (a compound having 10 or more and less than 20 is denoted as A) | A (a compound having 10 or more and less than 20 is denoted as A) | – | – | – | – |
| 1060 nM | 4.4 nM | – | – | CCC[C@H]1C(=O)N[C@@H](CC(C)C)C(=O)N2C[C@@H](OC)C[C@H]2C(=O)N(C)[C@H]2C/C=C\CCN(C2=O)[C@@H](Cc2ccc(C)cc2)C(=O)N(C)CC(=O)N[C@@H](CCc2cc(F)c(C(F)(F)F)c(F)c2)C(=O)N2C[C@H](OCC)C[C@H]2C(=O)NC2(CCC2)C(=O)N(C)[C@@H](C2CCCC2)C(=O)N(C)[C@H](C(=O)N(C)C)CC(=O)N1C [PP2547] | B (a compound having 3 or more and less than 10 is denoted as B) | A (a compound having 10 or more and less than 20 is denoted as A) | – | – | – | – |
| 36.6 nM | 0.44 nM | – | – | CCC(CC)[C@H]1C(=O)N(C)[C@H](C(=O)N(C)C)CC(=O)N(C)[C@@H](COC)C(=O)N[C@@H]([C@@H](C)CC)C(=O)N(C)CC(=O)N(C)[C@H]2C/C=C\CCN(C2=O)[C@@H](Cc2ccc(C(F)(F)F)cc2)C(=O)N(C)CC(=O)N[C@@H](CCc2ccc(Cl)c(Cl)c2)C(=O)N2C[C@H](OC3CCC3)C[C@H]2C(=O)NC2(CC(C)(C)C2)C(=O)N1C [PP2642] | A (a compound having 10 or more and less than 20 is denoted as A) | AA (a compound having 20 or more is denoted as AA) | – | – | – | – |
| 303 nM | – | – | 2.6 nM | CC[C@H](C)[C@@H]1NC(=O)[C@H](COC)N(C)C(=O)C[C@@H](C(=O)N(C)C)N(C)C(=O)[C@H](C2CCCC2)N(C)C(=O)C2(CC(C)(C)C2)NC(=O)[C@@H]2C[C@@H](OC(C)C)CN2C(=O)[C@H](CCc2ccc(Cl)c(Cl)c2)NC(=O)CN(C)C(=O)[C@H](CC2CCCCC2)N2CC/C=C\C[C@@H](C2=O)N(C)C(=O)CN(C2CC2)C1=O [PP2513] | – | – | – | – | A (a compound having 10 or more and less than 20 is denoted as A) | A (a compound having 10 or more and less than 20 is denoted as A) |
| 27.5 nM | – | 0.12 nM | – | CC[C@H](C)[C@@H]1NC(=O)[C@H](CC)N(C)C(=O)C[C@@H](C(=O)N(C)C)N(C)C(=O)[C@H](C2CCCC2)N(C)C(=O)C2(CCC2)NC(=O)[C@@H]2CC(F)(F)CN2C(=O)[C@H](CCc2cc(F)c(C(F)(F)F)c(F)c2)NC(=O)CN(C)C(=O)[C@H](CC2CCCCC2)N2CC/C=C\C[C@@H](C2=O)N(C)C(=O)CN(C)C1=O [PP1462, (2S,8S,14S,20S,23S,27S,30S,36S,38Z)-2-(cyclohexylmethyl)-20-cyclopentyl-8-[2-[3,5-difluoro-4-(trifluoromethyl)phenyl]ethyl]-27-ethyl-12,12-difluoro-N,N,4,19,22,26,32,35-octamethyl-30-[(1S)-1-methylpropyl]-3,6,9,15,18,21,25,28,31,34,42-undecaoxo-spiro[1,4,7,10,16,19,22,26,29,32,35-undecazatricyclo[34.5.1.0^10,14]dotetracont-38-ene-17,1′-cyclobutane]-23-carboxamide] | – | – | A (a compound having 10 or more and less than 20 is denoted as A) | A (a compound having 10 or more and less than 20 is denoted as A) | – | – |
